Experimental data reported in patent US7544690B2, “MCH receptor antagonists” (Taisho Pharmaceutical Co., Ltd., priority 2001, dated 2009).
Structures can show the parent of a compound that is named as a salt.

Target: T1, non-endogenous version of the MCH receptor (MCH-IC3-SST2) (Homo sapiens, UniProt Q99705, A240I/A242V/I247R/L249K/M235V/P241R/Q244S/R234K/R245S/R248K/R250S/R253K/S243G/S246K/T236K/T251E/V239G)
T1 construct: creating a MCH-IC3-SST2 mutation (see); expressed in transfected cells; cultured with 0.5 mg/ml G418, so I infer a stably transfected line
Experiment: FLIPR/FDSS6000 functional assay: intracellular Ca2+ changes evoked by MCH
Assay type: cell-based
Details: antagonist activity; 50 nM of MCH; transient changes in [Ca2+]i monitored by FLIPR or FDSS
From the text: Subsequently, a functional based assay was used to confirm the lead hits, referred to as FLIPR™ (the Fluorometric Imaging Plate Reader) and FDSS6000™ (Functional Drug Screening System). This assay utilized a non-endogenous version of the MCH receptor, which was created by swapping the third intracellular loop of the MCH receptor with that of the SST2 receptor (see Example 2(B)(2) of patent application Ser. No. 09/826,509).
The FLIPR and FDSS assays are able to detect intracellular Ca^2+ concentration in cells, which can be utilized to assess receptor activation and determine whether a candidate compound is an, for example, antagonist, inverse agonist or agonist to a Gq-coupled receptor. The concentration of free Ca^2+ in the cytosol of any cell is extremely low, whereas its concentration in the extracellular fluid and endoplasmic reticulum (ER) is very high. Thus, there is a large gradient tending to drive Ca^2+ into the cytosol across both the plasma membrane and ER. […]
To confirm the lead hits identified using the [^35S]GTPγS assay, Fluorometric Imaging Plate Reader system was used to allow for rapid, kinetic measurements of intracellular fluorescence in 96 well microplates (or 384 well microplates). Simultaneous measurements of fluorescence in all wells can be made by FLIPR or FDSS6000™, every second with high sensitivity and precision. […]

T1 sequence (Q99705 1-353 with the stated changes): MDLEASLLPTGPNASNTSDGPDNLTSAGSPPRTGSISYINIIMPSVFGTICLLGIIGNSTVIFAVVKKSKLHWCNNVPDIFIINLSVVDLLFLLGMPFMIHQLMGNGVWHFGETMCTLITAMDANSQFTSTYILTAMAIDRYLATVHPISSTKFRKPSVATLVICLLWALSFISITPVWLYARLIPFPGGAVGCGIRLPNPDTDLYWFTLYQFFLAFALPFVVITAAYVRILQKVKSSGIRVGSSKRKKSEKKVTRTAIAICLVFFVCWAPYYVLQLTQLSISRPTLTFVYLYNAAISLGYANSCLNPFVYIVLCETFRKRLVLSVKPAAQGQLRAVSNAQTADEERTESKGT

| IC50 [nM] | SMILES |
| --- | --- |
| 19 | CN(C)c1nc(N[C@H]2CC[C@@H](CNCc3ccccc3OC(F)(F)F)CC2)nc2ccccc12 [Example 42, cis-N^4,N^4-Dimethyl-N^2-{4-[(2-trifluoromethoxy-benzylamino)-methyl]-cyclohexyl}-quinazoline-2,4-diamine dihydrochloride] |
| 6 | CN(C)c1nc(N[C@H]2CC[C@@H](CNCc3ccc(Br)cc3OC(F)(F)F)CC2)nc2ccccc12 [Example 41, cis-N^2-{4-[(4-Bromo-2-trifluoromethoxy-benzylamino)-methyl]-cyclohexyl}-N^4,N^4-dimethyl-quinazoline-2,4-diamine dihydrochloride] |
